What was measured:
Caco-2 = assay: Cytotoxicity against human Caco-2 cells assessed as reduction in cell viability at 10 to 100 uM incubated for 48 hrs by MTT assay; assay type: toxicity, cell-based; details: caco-2, 48 h, dose 10-100 µM
RAW264.7 [1] = assay: Antiinflammatory activity in mouse RAW264.7 cells assessed as inhibition of LPS-induced NO production incubated for 20 hrs by Griess reagent based assay; assay type: functional, cell-based; details: dose 10-100 µM, DDE = dose-dependent effect
RAW264.7 [2] = assay: Cytotoxicity against LPS-stimulated mouse RAW264.7 cells assessed as reduction in cell viability at 10 to 100 uM incubated for 20 hrs by MTT assay; assay type: toxicity, cell-based; details: raw264.7, 20 h, dose 10-100 µM
RAW264.7 [3] = assay: Antiinflammatory activity in mouse RAW264.7 cells assessed as inhibition of LPS-induced NO production at 100 uM incubated for 20 hrs by Griess reagent based assay relative to control; assay type: functional

## C[C@H]1CC[C@H](CO)C(CO)=C2[C@H]1CC(C)(C)[C@@H]2O
Caco-2
  Activity: Non-Toxic
RAW264.7 [1]
  Activity: Dde
RAW264.7 [2]
  Activity: Non-Toxic

## CC1=C2C[C@@](C)(C(=O)O)C[C@H]2C[C@]2(C)CC[C@]12O
Caco-2
  Activity: Non-Toxic
RAW264.7 [1]
  Activity: Dde
RAW264.7 [2]
  Activity: Non-Toxic

## CC1=C(CO)[C@H](C)C[C@@H]2C[C@](C)(C(=O)O)C=C12
Caco-2
  Activity: Non-Toxic
RAW264.7 [1]
  Activity: Dde
RAW264.7 [3]
  inhibition at 100 µM: 34.8%
RAW264.7 [2]
  Activity: Non-Toxic

## CC1=C2C[C@@](C)(C(=O)O)C[C@H]2C[C@]2(CO)CC[C@]12O
Caco-2
  Activity: Non-Toxic
RAW264.7 [1]
  Activity: Dde
RAW264.7 [2]
  Activity: Non-Toxic

## CC1=C2C[C@@](C)(C(=O)O)C[C@H]2C[C@@H](CO)C12CC2
Caco-2
  Activity: Non-Toxic
RAW264.7 [1]
  Activity: Dde
RAW264.7 [2]
  Activity: Non-Toxic

## CC1=C2C[C@@](C)(C(=O)O)C[C@H]2C[C@]2(C)C[C@H](O)[C@]12O
Caco-2
  Activity: Non-Toxic
RAW264.7 [1]
  Activity: Dde
RAW264.7 [3]
  inhibition at 100 µM: 36.4%
RAW264.7 [2]
  Activity: Non-Toxic

## C[C@H]1CC[C@H](CO)[C@H](CO)C2=C[C@](C)(CO)C[C@H]21
Caco-2
  Activity: Non-Toxic
RAW264.7 [1]
  Activity: Dde
RAW264.7 [3]
  inhibition at 100 µM: 38%
RAW264.7 [2]
  Activity: Non-Toxic

Source: ChEMBL document CHEMBL5143573, “Cyclohumulanoid Sesquiterpenes Induced by the Noncompetitive Coculture of Phellinus orientoasiaticus and Xylodon flaviporus” (J Nat Prod, 2022)
